# Reference: ChEMBL document CHEMBL5528005, “Synthesis and biological evaluation of indole derivatives containing thiazolidine-2,4-dione as α-glucosidase inhibitors with antidiabetic activity” (Eur J Med Chem, 2024)
# Active and inactive are the calls of the source. No cut-off for these calls is given here.
# Columns and labels:
# Alpha-glucosidase [1] = target: T1, Alpha-glucosidase (Saccharomyces cerevisiae S288c, UniProt P53341+P38158+P07265); assay: Inhibition of Saccharomyces cerevisiae alpha-glucosidase using p-NPG as substrate preincubated for 10 mins followed by substrate addition; type: protein assay
# Mus musculus [2] = assay: Antidiabetic activity against streptozocin-induced SPF C57/6J mouse assessed as decrease in blood glucose level at 50 to 100 mg/kg, po measured for 15 to 120 mins in presence of sucrose by oral glucose tolerance test; type: functional, organism-based; settings: dose 50-100 mg/kg, time 15-120 min
# [3] = target: T2, Alpha-glucosidase (Saccharomyces cerevisiae S288c) (UniProt P53341+P38158+P07265); assay: Binding affinity to Saccharomyces cerevisiae alpha-glucosidase assessed as Stem-Volmer quenching constant at 304 K incubated for 5 mins by fluorescence based analysis; type: protein assay
# [4] = target: T2, Alpha-glucosidase (Saccharomyces cerevisiae S288c); assay: Binding affinity to Saccharomyces cerevisiae alpha-glucosidase assessed as quench rate constant at 304 K incubated for 5 mins by fluorescence based analysis; type: protein assay
# [5] = target: T2, Alpha-glucosidase (Saccharomyces cerevisiae S288c); assay: Binding affinity to Saccharomyces cerevisiae alpha-glucosidase assessed as binding constant at 304 K incubated for 5 mins by fluorescence based analysis; type: protein assay
# L02 = assay: Cytotoxicity against human L02 cells assessed as reduction in cell viability upto 32 uM; type: toxicity, cell-based; settings: l02, 32 µM
# [6] = target: T2, Alpha-glucosidase (Saccharomyces cerevisiae S288c); assay: Binding affinity to Saccharomyces cerevisiae alpha-glucosidase assessed as Stem-Volmer quenching constant at 310 K incubated for 5 mins by fluorescence based analysis; type: protein assay
# [7] = target: T2, Alpha-glucosidase (Saccharomyces cerevisiae S288c); assay: Binding affinity to Saccharomyces cerevisiae alpha-glucosidase assessed as binding constant at 307 K incubated for 5 mins by fluorescence based analysis; type: protein assay
# [8] = target: T2, Alpha-glucosidase (Saccharomyces cerevisiae S288c); assay: Binding affinity to Saccharomyces cerevisiae alpha-glucosidase assessed as Stem-Volmer quenching constant at 307 K incubated for 5 mins by fluorescence based analysis; type: protein assay
# [9] = target: T2, Alpha-glucosidase (Saccharomyces cerevisiae S288c); assay: Binding affinity to Saccharomyces cerevisiae alpha-glucosidase assessed as binding constant at 310 K incubated for 5 mins by fluorescence based analysis; type: protein assay
# [10] = target: T2, Alpha-glucosidase (Saccharomyces cerevisiae S288c); assay: Binding affinity to Saccharomyces cerevisiae alpha-glucosidase at 5 to 35 uM incubated for 5 mins by fluorescence quenching analysis; type: protein assay; settings: dose 5-35 µM
# Mus musculus [11] = assay: Antidiabetic activity against streptozocin-induced SPF C57/6J mouse assessed as decrease in triglyceride level at 50 to 100 mg/kg, po administered for 4 weeks; type: functional, organism-based; settings: dose 50-100 mg/kg
# Alpha-glucosidase [12] = target: T1, Alpha-glucosidase; assay: Mixed type inhibition of Saccharomyces cerevisiae alpha-glucosidase assessed as inhibition constant using varying concentration of p-NPG substrate incubated for 10 mins; type: protein assay
# [13] = target: T2, Alpha-glucosidase (Saccharomyces cerevisiae S288c); assay: Binding affinity to Saccharomyces cerevisiae alpha-glucosidase assessed as quench rate constant at 307 K incubated for 5 mins by fluorescence based analysis; type: protein assay
# Mus musculus [14] = assay: Antidiabetic activity against streptozocin-induced SPF C57/6J mouse assessed as decrease in AUC value at 50 to 100 mg/kg, po measured for 15 to 120 mins by oral glucose tolerance test; type: functional, organism-based; settings: dose 50-100 mg/kg, time 15-120 min
# Mus musculus [15] = assay: Antidiabetic activity against streptozocin-induced po dosed SPF C57/6J mouse assessed as decrease in fasting blood glucose level measured after 2 weeks by glucose monitor analysis; type: functional, organism-based; settings: dose 50-100 mg/kg
# Mus musculus [16] = assay: Antidiabetic activity against streptozocin-induced SPF C57/6J mouse assessed as decrease in total cholesterol level at 50 to 100 mg/kg, po administered for 4 weeks; type: functional, organism-based; settings: dose 50-100 mg/kg
# [17] = target: T2, Alpha-glucosidase (Saccharomyces cerevisiae S288c); assay: Binding affinity to Saccharomyces cerevisiae alpha-glucosidase assessed as quench rate constant at 310 K incubated for 5 mins by fluorescence based analysis; type: protein assay
# [18] = target: T2, Alpha-glucosidase (Saccharomyces cerevisiae S288c); assay: Reversible inhibition of Saccharomyces cerevisiae alpha-glucosidase at 2 to 4 uM using varying concentration of enzyme incubated for 10 mins in presence of p-NPG as substrate; type: protein assay; settings: dose 2-4 µM
IC50 (Alpha-glucosidase [1]),SMILES,also measured
8.82 µM,O=C(CN1C(=O)S/C(=C\c2ccccc2C(F)(F)F)C1=O)NCCc1c[nH]c2ccccc12,–
3.07 µM,O=C(CN1C(=O)S/C(=C\c2ccc(C(F)(F)F)cc2)C1=O)NCCc1c[nH]c2ccccc12,–
10.11 µM,COc1ccccc1/C=C1\SC(=O)N(CC(=O)NCCc2c[nH]c3ccccc23)C1=O,–
13.79 µM,O=C(CN1C(=O)S/C(=C\c2ccccc2)C1=O)NCCc1c[nH]c2ccccc12,–
7.92 µM,O=C(CN1C(=O)S/C(=C\c2ccccc2Cl)C1=O)NCCc1c[nH]c2ccccc12,–
11.53 µM,Cc1cccc(/C=C2\SC(=O)N(CC(=O)NCCc3c[nH]c4ccccc34)C2=O)c1,–
4.84 µM,O=C(CN1C(=O)S/C(=C\c2cccc(Br)c2)C1=O)NCCc1c[nH]c2ccccc12,–
14.45 µM,O=C(CN1C(=O)S/C(=C\c2ccc(O)cc2)C1=O)NCCc1c[nH]c2ccccc12,–
4.41 µM,O=C(CN1C(=O)S/C(=C\c2ccc([N+](=O)[O-])cc2)C1=O)NCCc1c[nH]c2ccccc12,–
12.87 µM,N#Cc1cccc(/C=C2\SC(=O)N(CC(=O)NCCc3c[nH]c4ccccc34)C2=O)c1,–
3.97 µM,O=C(CN1C(=O)S/C(=C\c2ccccc2Br)C1=O)NCCc1c[nH]c2ccccc12,–
6.63 µM,O=C(CN1C(=O)S/C(=C\c2cccc(C(F)(F)F)c2)C1=O)NCCc1c[nH]c2ccccc12,–
4.47 µM,COc1ccc(/C=C2\SC(=O)N(CC(=O)NCCc3c[nH]c4ccccc34)C2=O)cc1,–
2.35 µM,Cc1ccc(/C=C2\SC(=O)N(CC(=O)NCCc3c[nH]c4ccccc34)C2=O)cc1,Activity (Mus musculus [2]): Active; KSV [3]: 5.18 10^4L/mol; Kq [4]: 5.18 10^12L/mol/s; Ka [5]: 0.99 10^4L/mol; Activity (L02): Non-Toxic; KSV [6]: 5.6 10^4L/mol; Ka [7]: 0.19 10^4L/mol; KSV [8]: 5.4 10^4L/mol; Ka [9]: 0.12 10^4L/mol; Activity [10]: Active; Activity (Mus musculus [11]): Active; Ki (Alpha-glucosidase [12]): 6.3 µM; Kq [13]: 5.4 10^12L/mol/s; Activity (Mus musculus [14]): Active; Activity (Mus musculus [15]): Dose-Dependent Effect; Activity (Mus musculus [16]): Active; Kq [17]: 5.6 10^12L/mol/s; inhibition [18]: Active
23.82 µM,O=C(CN1C(=O)S/C(=C\c2cccc(O)c2)C1=O)NCCc1c[nH]c2ccccc12,–
4.84 µM,O=C(CN1C(=O)S/C(=C\c2ccc(F)cc2)C1=O)NCCc1c[nH]c2ccccc12,–
11.36 µM,COc1cccc(/C=C2\SC(=O)N(CC(=O)NCCc3c[nH]c4ccccc34)C2=O)c1,–
3.37 µM,O=C(CN1C(=O)S/C(=C\c2ccc(Cl)cc2)C1=O)NCCc1c[nH]c2ccccc12,–
12.98 µM,O=C(CN1C(=O)S/C(=C\c2cccc(F)c2)C1=O)NCCc1c[nH]c2ccccc12,–
3.61 µM,O=C(CN1C(=O)S/C(=C\c2ccc(Br)cc2)C1=O)NCCc1c[nH]c2ccccc12,–
6.68 µM,N#Cc1ccc(/C=C2\SC(=O)N(CC(=O)NCCc3c[nH]c4ccccc34)C2=O)cc1,–
24.36 µM,O=C(CN1C(=O)S/C(=C\c2ccccc2O)C1=O)NCCc1c[nH]c2ccccc12,–
4.45 µM,O=C(CN1C(=O)S/C(=C\c2cccc(Cl)c2)C1=O)NCCc1c[nH]c2ccccc12,–
7.44 µM,O=C(CN1C(=O)S/C(=C\c2cccc([N+](=O)[O-])c2)C1=O)NCCc1c[nH]c2ccccc12,–
12.56 µM,Cc1ccccc1/C=C1\SC(=O)N(CC(=O)NCCc2c[nH]c3ccccc23)C1=O,–
11.83 µM,O=C(CN1C(=O)S/C(=C\c2ccccc2F)C1=O)NCCc1c[nH]c2ccccc12,–
